# Data from ChEMBL document CHEMBL1201862, “PubChem BioAssay data set” (2004).
#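 Dose response: 5 concentrations. Exposure: 48 h. Format: 96-well plates. Endpoint: linear interpolation; highest concentration if not reached. At the GI50, growth is halved.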 Activity calls are given as the source filed them. Rule as the data show it: active = GI50 up to about 1.1 µM and inactive = higher.
# Columns and labels:
# Assay in all cases: NCI tumour cell line growth inhibition, 48 h
# [1] = system: SF-295
# [2] = system: 786-0
# [3] = system: OVCAR-4
# [4] = system: SF-268
# [5] = system: RXF 393
# [6] = system: Malme-3M
# [7] = system: SNB-75
# [8] = system: COLO 205
# [9] = system: MOLT-4
# [10] = system: EKVX
# [11] = system: SNB-19
# [12] = system: UACC-257
# [13] = system: BT-549
# [14] = system: RPMI-8226
# [15] = system: UACC-62
# [16] = system: KM12
# [17] = system: CAKI-1
# [18] = system: ACHN
# [19] = system: NCI-H226
Compound,GI50 [1],GI50 [2],GI50 [3],GI50 [4],GI50 [5],GI50 [6],GI50 [7],GI50 [8],GI50 [9],GI50 [10],GI50 [11],GI50 [12],GI50 [13],GI50 [14],GI50 [15],GI50 [16],GI50 [17],GI50 [18],GI50 [19]
c1ccc(C2C(=P(c3ccccc3)(c3ccccc3)c3ccccc3)P=PC2[P+](c2ccccc2)(c2ccccc2)c2ccccc2)cc1.c1ccc([B-](c2ccccc2)(c2ccccc2)c2ccccc2)cc1 (centres undefined),0.492 µM (active),0.289 µM (active),0.652 µM (active),0.695 µM (active),0.285 µM (active),1.78 µM (inactive),0.582 µM (active),0.202 µM (active),1.63 µM (inactive),4.79 µM (inactive),0.313 µM (active),1.12 µM (inactive),0.721 µM (active),0.278 µM (active),2.44 µM (inactive),0.351 µM (active),3.66 µM (inactive),0.701 µM (active),1.11 µM (active)
C#CCn1c(=O)c(I)cn(/C(=C/C(=O)OCC)C(=O)OCC)c1=O,39.7 µM (inactive),1.63 µM (inactive),8.22 µM (inactive),9.44 µM (inactive),3.61 µM (inactive),1.52 µM (inactive),17.2 µM (inactive),0.667 µM (active),< 0.0195 µM (active),2.94 µM (inactive),18.3 µM (inactive),3.06 µM (inactive),11.5 µM (inactive),0.746 µM (active),5.42 µM (inactive),18 µM (inactive),1.86 µM (inactive),1.67 µM (inactive),25.7 µM (inactive)
NCCCNC1(c2cc3ccccc3s2)CCCCC1,9.48 µM (inactive),2 µM (inactive),11.1 µM (inactive),9.93 µM (inactive),4.17 µM (inactive),1.88 µM (inactive),10.9 µM (inactive),1.84 µM (inactive),3.29 µM (inactive),8.65 µM (inactive),8.77 µM (inactive),1.64 µM (inactive),13.8 µM (inactive),1.91 µM (inactive),1.92 µM (inactive),3.22 µM (inactive),8.43 µM (inactive),11.9 µM (inactive),17.1 µM (inactive)
NS(=O)(=O)c1ccc(NC(NC(=O)C(C(F)(F)F)C(F)(F)F)(C(F)(F)F)C(F)(F)F)cc1,> 100 µM (inactive),> 100 µM (inactive),> 100 µM (inactive),> 100 µM (inactive),> 100 µM (inactive),> 100 µM (inactive),> 100 µM (inactive),> 100 µM (inactive),> 100 µM (inactive),> 100 µM (inactive),> 100 µM (inactive),> 100 µM (inactive),> 100 µM (inactive),> 100 µM (inactive),> 100 µM (inactive),> 100 µM (inactive),> 100 µM (inactive),> 100 µM (inactive),> 100 µM (inactive)
CCOC(=O)C1(C(=O)OCC)[C@H](c2ccccc2)C2=NO[C@@H]3CCC[C@H]1[C@H]23,33.4 µM (inactive),82.2 µM (inactive),37.9 µM (inactive),> 100 µM (inactive),52.1 µM (inactive),> 100 µM (inactive),30.1 µM (inactive),33 µM (inactive),15.4 µM (inactive),27.9 µM (inactive),> 100 µM (inactive),31.6 µM (inactive),44.8 µM (inactive),14.6 µM (inactive),15.2 µM (inactive),34.8 µM (inactive),48.3 µM (inactive),84.3 µM (inactive),32.9 µM (inactive)
CS(=O)(=O)c1ccc(/N=C/C=C/Nc2ccc(S(C)(=O)=O)cc2)cc1,> 100 µM (inactive),> 100 µM (inactive),> 100 µM (inactive),> 100 µM (inactive),> 100 µM (inactive),> 100 µM (inactive),> 100 µM (inactive),> 100 µM (inactive),> 100 µM (inactive),> 100 µM (inactive),> 100 µM (inactive),> 100 µM (inactive),> 100 µM (inactive),> 100 µM (inactive),> 100 µM (inactive),27.4 µM (inactive),> 100 µM (inactive),> 100 µM (inactive),> 100 µM (inactive)
Brc1ccc2c(c1)-c1nc3c(cc1CC2)CCc1ccc(Br)cc1-3,> 100 µM (inactive),> 100 µM (inactive),> 100 µM (inactive),> 100 µM (inactive),> 100 µM (inactive),> 100 µM (inactive),> 100 µM (inactive),> 100 µM (inactive),42.4 µM (inactive),> 100 µM (inactive),> 100 µM (inactive),> 100 µM (inactive),> 100 µM (inactive),0.637 µM (active),–,> 100 µM (inactive),> 100 µM (inactive),> 100 µM (inactive),> 100 µM (inactive)
O=C1c2cc([N+](=O)[O-])sc2C(=O)c2cc([N+](=O)[O-])sc21,8.2 µM (inactive),2.52 µM (inactive),4.51 µM (inactive),3.63 µM (inactive),6.03 µM (inactive),0.34 µM (active),12.6 µM (inactive),2.02 µM (inactive),2.84 µM (inactive),3.13 µM (inactive),3.85 µM (inactive),5.16 µM (inactive),2.05 µM (inactive),0.535 µM (active),1.87 µM (inactive),3.61 µM (inactive),3.76 µM (inactive),3.85 µM (inactive),12.3 µM (inactive)
CN(C)c1ccc(-c2c(C#N)c(O)n(NS(=O)(=O)c3ccccc3)c(=O)c2C#N)cc1,–,> 100 µM (inactive),> 100 µM (inactive),> 100 µM (inactive),> 100 µM (inactive),> 100 µM (inactive),> 100 µM (inactive),> 100 µM (inactive),> 100 µM (inactive),> 100 µM (inactive),> 100 µM (inactive),> 100 µM (inactive),> 100 µM (inactive),> 100 µM (inactive),> 100 µM (inactive),> 100 µM (inactive),> 100 µM (inactive),> 100 µM (inactive),> 100 µM (inactive)
O=c1[nH]cc(NCCCl)c(=O)[nH]1,> 100 µM (inactive),> 100 µM (inactive),> 100 µM (inactive),> 100 µM (inactive),> 100 µM (inactive),> 100 µM (inactive),> 100 µM (inactive),> 100 µM (inactive),> 100 µM (inactive),> 100 µM (inactive),> 100 µM (inactive),> 100 µM (inactive),> 100 µM (inactive),> 100 µM (inactive),> 100 µM (inactive),> 100 µM (inactive),> 100 µM (inactive),> 100 µM (inactive),> 100 µM (inactive)
CC[C@@]1(O)C(=O)OCc2c1cc1n(c2=O)Cc2c-1nc1ccccc1c2/C=N\NC(=O)C(N)=O,0.151 µM (active),0.0705 µM (active),38.3 µM (inactive),< 0.0292 µM (active),3.04 µM (inactive),7.06 µM (inactive),0.558 µM (active),> 50.1 µM (inactive),< 0.0138 µM (active),19.5 µM (inactive),0.0383 µM (active),14.4 µM (inactive),3.44 µM (inactive),0.61 µM (active),0.0332 µM (active),> 92.3 µM (inactive),0.0655 µM (active),< 0.0151 µM (active),0.219 µM (active)
CCOC(=O)c1c(O)cn2c1[nH]c1cccc3cccc2c31,87.5 µM (inactive),52.2 µM (inactive),> 100 µM (inactive),63.7 µM (inactive),41.5 µM (inactive),> 100 µM (inactive),37.4 µM (inactive),71.6 µM (inactive),44.2 µM (inactive),> 100 µM (inactive),97.7 µM (inactive),> 100 µM (inactive),> 100 µM (inactive),> 100 µM (inactive),> 100 µM (inactive),> 100 µM (inactive),> 100 µM (inactive),52.4 µM (inactive),> 100 µM (inactive)
C/C=C/[C@@H](C(=O)OC)N1C(=O)c2ccccc2[C@H]1O,> 100 µM (inactive),> 100 µM (inactive),> 100 µM (inactive),> 100 µM (inactive),> 100 µM (inactive),> 100 µM (inactive),> 100 µM (inactive),> 100 µM (inactive),> 100 µM (inactive),> 100 µM (inactive),> 100 µM (inactive),> 100 µM (inactive),> 100 µM (inactive),> 100 µM (inactive),> 100 µM (inactive),> 100 µM (inactive),> 100 µM (inactive),> 100 µM (inactive),> 100 µM (inactive)
CSc1c(C#N)c(N)nc2c(/N=N\c3ccc(Cl)cc3)c(N)nn12,22.9 µM (inactive),2.86 µM (inactive),2.64 µM (inactive),2.39 µM (inactive),2.55 µM (inactive),6.08 µM (inactive),7.41 µM (inactive),13.5 µM (inactive),2.44 µM (inactive),0.34 µM (active),17.3 µM (inactive),3.27 µM (inactive),2.94 µM (inactive),2.6 µM (inactive),3.33 µM (inactive),6.14 µM (inactive),18.7 µM (inactive),5.66 µM (inactive),16.9 µM (inactive)
